Reference: patent US9499493B2, “2,4-pyrimidinediamine compounds and their uses” (Rigel Pharmaceuticals, Inc., priority 2002, dated 2016)
Structures can show the parent of a compound that is named as a salt.

The compounds below were run on cultured human mast cells (CHMC) (assay: CHMC low cell density ionomycin activation: tryptase assay). Conditions: not given.
Assay type: cell-based
With `CCOC(=O)COc1ccc(Nc2ncc(-c3nnn[nH]3)c(Nc3ccc(OCC(=O)OCC)cc3)n2)cc1` [R925810, N2,N4-Bis(4-ethoxycarbonylmethyleneoxyphenyl)-5-(1,2,3,4-tetrazol-5-yl)-2,4-pyrimidinediamine] the IC50 was > 10 µM.
With `O=C(COc1cccc(Nc2ncc(F)c(Nc3cccc(O)c3)n2)c1)NCC(O)CO` (centres unmarked) [R926746, 5-Fluoro-N4-(3-hydroxyphenyl)-N2-[3-(N-2,3-dihydroxypropylamino)carbonylmethyleneoxyphenyl]-2,4-pyrimidinediamine] the IC50 was > 10 µM.
In the case of `CC(C)Oc1ccc(Nc2nc(Nc3ccc4[nH]ncc4c3)ncc2F)cc1` [R935197, 5-Fluoro-N2-(indazoline-5-yl)-N4-(4-isopropoxyphenyl)-2,4-pyrimidinediamine], the IC50 is reported as > 10 µM.
In the case of `CNC(=O)COc1cccc(Nc2ncc(F)c(Nc3ccc4c(c3)NC(=O)CO4)n2)c1` [R908701], the IC50 is reported as 7.64 µM.
`CNC(=O)COc1cccc(Nc2ncc(F)c(Nc3cccc(NCCO)c3)n2)c1` [R950265, N4-(3-N-Hydroxyethylaminophenyl)-5-fluoro-N2-[3-(N-methylamino)carbonylmethyleneoxyphenyl]-2,4-pyrimidinediamine] was tested, and the IC50 was > 10 µM.
For `CNC(=O)COc1cccc(Nc2ncc(F)c(Nc3cccc4c3C(=O)N(C)C4=O)n2)c1` [R926856, 5-Fluoro-N2-[3-(N-methylamino)carbonylmethyleneoxyphenyl]-N4-(N-methylphthalimido-4-yl)-2,4-pyrimidinediamine], the IC50 was > 10 µM.
`CCOC(=O)CCn1ncc2ccc(Nc3nc(Nc4cccc(O)c4)ncc3F)cc21` [R935292, N4-[1-(2-Ethoxycarbonylethyl)indazoline-6-yl]-5-fluoro-N2-(3-hydroxyphenyl)-2,4-pyrimidinediamine] was tested, and the IC50 was > 10 µM.
For `COC(=O)C(C)Oc1ccc(Nc2ncc(F)c(Nc3ccc(OC(C)C(=O)OC)cc3)n2)cc1` (racemic) [R926254, (±)-N2,N4-Bis[4-methoxycarbonyl(α-methyl)methyleneoxyphenyl]-5-fluoro-2,4-pyrimidinediamine], the IC50 was 4 µM.
In the case of `CNC(=O)C(C)(C)Oc1cccc(Nc2ncc(F)c(Nc3cccc(O)c3)n2)c1` [R926913, 5-Fluoro-N4-(3-hydroxyphenyl)-N2-[3-[(N-methylamino)carbonyl-1,1-dimethylmethyleneoxy]phenyl]-2,4-pyrimidinediamine], the IC50 is reported as > 10 µM.
With `COC(=O)COc1ccc(Nc2ncc(F)c(Nc3cccc(C#N)c3)n2)cc1` [R945110, N4-(3-Cyanophenyl)-5-fluoro-N2-(4-methoxycarbonylmethyleneoxyphenyl)-2,4-pyrimidinediamine] the IC50 was > 10 µM.
With `CNC(=O)COc1cccc(Nc2ncc(F)c(Nc3ccc4c(c3)C(N)CCO4)n2)c1` (centres unmarked) [R950368, N4-(4-Amino-3,4-dihydro-2H-1-benzopyran-6-yl)-5-fluoro-N2-[3-(N-methylamino)carbonylmethyleneoxyphenyl]-2,4-pyrimidinediamine] the IC50 was > 10 µM.
`O=C(c1cc2cc(Nc3ncc(F)c(Nc4ccc5c(c4)OCCO5)n3)ccc2o1)N1CCCNCC1` [R926767, N4-(3,4-Ethylenedioxyphenyl)-5-fluoro-N2-[2-(N-homopiperazino)carbonylbenzofuran-5-yl]-2,4-pyrimidinediamine] was tested, and the IC50 was > 10 µM.
For `CNC(=O)COc1cccc(Nc2ncc(F)c(Nc3ccc4c(c3)C(N=[N+]=[N-])CCO4)n2)c1` (centres unmarked) [R950383, N4-(4-Azido-3,4-dihydro-2H-1-benzopyran-6-yl)-5-fluoro-N2-[3-(N-methylamino)carbonylmethyleneoxyphenyl]-2,4-pyrimidinediamine], the IC50 was > 10 µM.
With `Cc1noc(COc2ccc(Nc3nc(Nc4ccc5c(c4)OCCO5)ncc3F)cc2)n1` [R935145, N2-(3,4-Ethylenedioxyphenyl)-5-fluoro-N4-[4-(3-methyl-1,2,4-oxadiazol-5-yl)methyleneoxyphenyl]-2,4-pyrimidinediamine] the IC50 was > 10 µM.
In the case of `O=C(c1cc2cc(Nc3ncc(F)c(Nc4ccc5c(c4)OCCO5)n3)ccc2o1)N1CCCNCC1` [R926768, N4-(3,4-Ethylenedioxyphenyl)-5-fluoro-N2-[2-(N-homopiperazino)carbonylbenzofuran-5-yl]-2,4-pyrimidinediamine Hydrogen Chloride Salt], the IC50 is reported as > 10 µM.
In the case of `Oc1cccc(Nc2ncc(F)c(Nc3ccc4c(c3)OCCO4)n2)c1` [R925796, N4-(3,4-Ethylenedioxyphenyl)-5-fluoro-N2-(3-hydroxyphenyl)-2,4-pyrimidinediamine], the IC50 is reported as > 10 µM.
For `Oc1cccc(Nc2ncc(F)c(Nc3cccc(O)c3)n2)c1` [R926461, N2,N4-Bis(3-sodiumphenoxy)-5-fluoro-2,4-pyrimidinediamine], the IC50 was > 10 µM.
“N4-(3,4-Ethylenedioxyphenyl)-5-fluoro-N2-[3-(2-N-methylaminoethyl)phenyl]-2,4-pyrimidinediamine Hydrogen Chloride Salt [R926509]” was tested, and the IC50 was > 10 µM.
`CNC(=O)COc1cccc(Nc2ncc(F)c(Nc3ccc4c(c3)N(C)CCO4)n2)c1` [R909259, 5-Fluoro-N2-[3-(N-methylaminocarbonylmethyleneoxy)phenyl]-N4-(N-methyl-1,4-benzoxazin-6-yl)pyrimidinediamine] was tested, and the IC50 was > 10 µM.
For `CC(C)NC(=O)COc1cccc(Nc2ncc(F)c(Nc3ccc4c(c3)OCCO4)n2)c1` [R926830, N4-(3,4-Ethylenedioxyphenyl)-5-fluoro-N2-[3-(N-isopropylamino)carbonylmethyleneoxyphenyl]-2,4-pyrimidinediamine], the IC50 was 10 µM.
For `O=C(c1cc2cc(Nc3ncc(F)c(Nc4ccc5c(c4)OCCO5)n3)ccc2o1)N1CCOCC1` [R926492, N4-(3,4-Ethylenedioxyphenyl)-5-fluoro-N2-[2-(N-morpholino)carbonylbenzofuran-5-yl]-2,4-pyrimidinediamine], the IC50 was > 10 µM.
In the case of `Fc1cnc(Nc2ccc3cn[nH]c3c2)nc1Nc1cccc(OC(F)(F)F)c1` [R935363, 5-Fluoro-N2-(indazoline-6-yl)-N4-(3-trifluoromethoxyphenyl)-2,4-pyrimidinediamine], the IC50 is reported as > 10 µM.
In the case of `CNC(=O)CCn1ncc2cc(Nc3ncc(F)c(Nc4ccc(OC(F)(F)F)c(Cl)c4)n3)ccc21` [R935369, N4-(3-Chloro-4-trifluoromethoxyphenyl)-5-fluoro-N2-[1-[2(N-methylaminocarbonyl)ethyl]indazoline-5-yl]-2,4-pyrimidinediamine], the IC50 is reported as > 10 µM.
With `CC(C)(CO)NC(=O)COc1cccc(Nc2ncc(F)c(Nc3cccc(C(C)(C)C)c3)n2)c1` [R940308, N4-(3-tert-Butylpheny)-5-fluoro-N2-[3-(1,1-dimethyl-2-hydroxyethylaminocarbonylmethyleneoxy)-phenyl]-2,4-pyrimidinediamine] the IC50 was 4.17 µM.
With `Oc1cccc(Nc2nc(Nc3ccc4[nH]ncc4c3)ncc2F)c1` [R935199, 5-Fluoro-N4-(3-hydroxyphenyl)-N2-(indazoline-5-yl)-2,4-pyrimidinediamine] the IC50 was > 10 µM.
`OCCCn1ncc2ccc(Nc3ncc(F)c(Nc4cccc(O)c4)n3)cc21` [R935293, 5-Fluoro-N4-(3-hydroxyphenyl)-N2-[1-(3-hydroxypropyl)indazoline-6-yl]-2,4-pyrimidinediamine] was tested, and the IC50 was > 10 µM.
For `CNC(=O)COc1cccc(Nc2ncc(F)c(Nc3ccc(OC)c(F)c3)n2)c1` [R926892, 5-Fluoro-N4-(3-fluoro-4-methoxyphenyl)-N2-[3-[(N-methylamino)carbonylmethyleneoxy]phenyl]-2,4-pyrimidinediamine], the IC50 was > 10 µM.
`COc1cc(Nc2ncc(F)c(Nc3ccc(OCc4nc(-c5ccccc5)no4)cc3)n2)cc(OC)c1OC` [R935367, 5-Fluoro-N4-[4-(3-phenyl-1,2,4-oxadiazol-5-yl)methyleneoxyphenyl]-N2-(3,4,5-trimethoxyphenyl)-2,4-pyrimidinediamine] was tested, and the IC50 was > 10 µM.
With `Cn1ncc2cc(Nc3ncc(F)c(Nc4ccc5c(c4)OC(F)(F)O5)n3)ccc21` [R935357, N4-(3,4-Difluoromethylendioxyphenyl)-5-fluoro-N2-(1-methylindazoline-5-yl)-2,4-pyrimidinediamine] the IC50 was > 10 µM.
With `CNC(=O)COc1cc(Nc2ncc(F)c(Nc3cccc(O)c3)n2)ccc1C` [R926757, 5-Fluoro-N4-(3-hydroxyphenyl)-N2-[4-methyl-3-[(N-methylamino)carbonylmethyleneoxy]phenyl]-2,4-pyrimidinediamine] the IC50 was > 10 µM.
For `O=C(c1cc2cc(Nc3ncc(F)c(Nc4cccc(O)c4)n3)ccc2o1)N1CCNCC1` [R926500, 5-Fluoro-N4-(3-hydroxyphenyl)-N2-[2-(N-piperazino)carbonylbenzofuran-5-yl]-2,4-pyrimidinediamine], the IC50 was > 10 µM.
`OCCNc1cccc(Nc2ncc(F)c(Nc3cccc(NCCO)c3)n2)c1` [R950181, N2,N4-Bis(3-hydroxyethyleneaminophenyl)-5-fluoro-2,4-pyrimidinediamine] was tested, and the IC50 was > 10 µM.
With `Cc1cc(Nc2nc(Cl)ncc2F)ccc1F` [Compound R926921] the IC50 was > 10 µM.
With `CNC(=O)COc1cc(Nc2ncc(F)c(Nc3cccc(O)c3)n2)cc(OCC(=O)NC)c1` [R926930, N2-[3,5-Bis[(N-methylamino)carbonylmethyleneoxy]phenyl]-5-fluoro-N4-(3-hydroxyphenyl)-2,4-pyrimidinediamine] the IC50 was > 10 µM.
In the case of `N#CCOc1ccc(Nc2ncc(F)c(Nc3cccc(O)c3)n2)cc1` [R945070, N2-(4-Cyanomethyleneoxyphenyl)-5-fluoro-N4-(3-hydroxyphenyl)-2,4-pyrimidinediamine], the IC50 is reported as > 10 µM.
`O=C(c1cc2cc(Nc3ncc(F)c(Nc4ccc5c(c4)OCCO5)n3)ccc2o1)N1CCNCC1` [R926499, N4-(3,4-Ethylenedioxyphenyl)-5-fluoro-N2-[2-(N-piperazino)carbonylbenzofuran-5-yl]-2,4-pyrimidinediamine] was tested, and the IC50 was > 10 µM.
For `O=C(CNc1cccc(Nc2ncc(F)c(Nc3ccc4c(c3)OCCO4)n2)c1)NCCO` [R950195, N4-(3,4-Ethylenedioxyphenyl)-5-fluoro-N2-[3-(N-2-hydroxyethyleneamino)carbonylmethyleneaminophenyl]-5-fluoro-2,4-pyrimidinediamine], the IC50 was > 10 µM.

Each compound was assayed on cultured human mast cells (CHMC) (assay: CHMC low cell density IgE activation: tryptase assay). Conditions: anti-IgE.
Assay type: cell-based
Method in brief: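 Supernatant tryptase activity, assayed with substrate for 30 min at room temperature, served as the degranulation measure. Mast cells (1000-1500 per well depending on donor) sat 1 hr at 37° C in MT before a 30 min anti-IgE challenge at 37° C.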
In the case of `CCOC(=O)COc1ccc(Nc2ncc(-c3nnn[nH]3)c(Nc3ccc(OCC(=O)OCC)cc3)n2)cc1` [R925810, N2,N4-Bis(4-ethoxycarbonylmethyleneoxyphenyl)-5-(1,2,3,4-tetrazol-5-yl)-2,4-pyrimidinediamine], the IC50 is reported as > 10 µM.
`O=C(COc1cccc(Nc2ncc(F)c(Nc3cccc(O)c3)n2)c1)NCC(O)CO` (centres unmarked) [R926746, 5-Fluoro-N4-(3-hydroxyphenyl)-N2-[3-(N-2,3-dihydroxypropylamino)carbonylmethyleneoxyphenyl]-2,4-pyrimidinediamine] showed an IC50 of 0.989 µM.
Compound `CC(C)Oc1ccc(Nc2nc(Nc3ccc4[nH]ncc4c3)ncc2F)cc1` [R935197, 5-Fluoro-N2-(indazoline-5-yl)-N4-(4-isopropoxyphenyl)-2,4-pyrimidinediamine] has an IC50 of 0.174 µM.
Compound `CNC(=O)COc1cccc(Nc2ncc(F)c(Nc3ccc4c(c3)NC(=O)CO4)n2)c1` [R908701] has an IC50 of 0.099 µM.
